Reference: publication PMC3857843, “Multiple Transport-Active Binding Sites Are Available for a Single Substrate on Human P-Glycoprotein (ABCB1)” (PLoS ONE, 2013)

Columns and labels:
all mutant Pgps = assay: Vanadate-sensitive ATP hydrolysis of Pgp in crude membranes; type: biochemical, human; conditions: all mutant Pgps; inhibition measured in presence of verapamil 5 µM
Method: Crude membranes were prepared as described previously

F978C mutant Pgp [1] = biological target: T1, F978C mutant Pgp (Homo sapiens, UniProt P08183, C1074A/C1125A/C1227A/C137A/C431A/C717A/C956A/F978C); assay: biochemical
Method: (§1) Then, samples were photocrosslinked with IAAP at 4°C as described in the Materials and Methods section. Mean values from at least three independent experiments are plotted and error bars depict SD.
(§2) High-Five insect cells (Invitrogen, Carlsbad, CA) were infected with recombinant baculovirus carrying the human MDR1 cDNA cysless WT and various mutant Pgps, with a His6-tag at the C-terminus as described previously. Crude membranes were prepared as described previously
(§3) The crude membranes of High-Five insect cells containing 60-80 µg protein per 100 µL in 50 mM MES-Tris buffer (pH 6.8), were incubated for 10 minutes at 37°C in the absence (control) and presence of compound(s) at indicated concentration.

[2] = biological target: Q725C/V982C mutant Pgp (human MDR1) (Homo sapiens, UniProt P08183, C1074A/C1125A/C1227A/C137A/C431A/C717A/C956A/Q725C/V982C); assay: in vitro; conditions: pH 6.8
Method: as §1, §2, §3

[3] = biological target: Q725C mutant Pgp (human MDR1) (Homo sapiens, UniProt P08183, C1074A/C1125A/C1227A/C137A/C431A/C717A/C956A/Q725C); assay: in vitro; conditions: pH 6.8
Method: as §1, §2, §3

[4] = biological target: T2, Y307C/Q725C/V982C mutant Pgp (Homo sapiens, UniProt P08183, C1074A/C1125A/C1227A/C137A/C431A/C717A/C956A/Q725C/V982C/Y307C); assay: in vitro
Method: as §1, §2, §3

[5] = biological target: Y307C/Q725C/V982C mutant Pgp (human MDR1) (Homo sapiens, UniProt P08183, C1074A/C1125A/C1227A/C137A/C431A/C717A/C956A/Q725C/V982C/Y307C); assay: in vitro; conditions: human, pH 6.8
Method: as §1, §2, §3

[6] = biological target: F728C mutant Pgp (human MDR1) (Homo sapiens, UniProt P08183, C1074A/C1125A/C1227A/C137A/C431A/C717A/C956A/F728C); assay: in vitro; conditions: pH 6.8
Method: as §1, §2, §3

[7] = biological target: cysless WT Pgp (human MDR1) (Homo sapiens, UniProt P08183, C1074A/C1125A/C1227A/C137A/C431A/C717A/C956A); assay: in vitro; conditions: human, pH 6.8
Method: as §1, §2, §3

V982C mutant Pgp [8] = biological target: T3, V982C mutant Pgp (Homo sapiens, UniProt P08183, C1074A/C1125A/C1227A/C137A/C431A/C717A/C956A/V982C); assay: biochemical
Method: as §1, §2, §3

[9] = biological target: F978C mutant Pgp (human MDR1) (Homo sapiens, UniProt P08183, C1074A/C1125A/C1227A/C137A/C431A/C717A/C956A/F978C); assay: in vitro; conditions: human, pH 6.8
Method: as §1, §2, §3

[10] = biological target: V982C mutant Pgp (human MDR1) (Homo sapiens, UniProt P08183, C1074A/C1125A/C1227A/C137A/C431A/C717A/C956A/V982C); assay: in vitro; conditions: human, pH 6.8
Method: as §1, §2, §3

cysless WT Pgp [11] = biological target: T4, cysless WT Pgp (Homo sapiens, UniProt P08183, C1074A/C1125A/C1227A/C137A/C431A/C717A/C956A); assay: Inhibition of IAAP photo-labeling of Pgp in crude membranes
Method: as §1, §2, §3

F728C mutant Pgp = F728C mutant Pgp (Homo sapiens, UniProt P08183, C1074A/C1125A/C1227A/C137A/C431A/C717A/C956A/F728C); assay: Vanadate-sensitive ATP hydrolysis of Pgp in crude membranes; conditions: Verapamil 50 µM, QZ59-SSS 1 µM, Valinomycin 10 µM, FSBA 1 mM
Method: (§4) Vanadate-sensitive Pgp-mediated ATP hydrolysis was measured as described in Materials and Methods. […] At least two independent experiments were carried out for each mutant with indicated compounds. Additional information including standard deviations, fold-stimulation or % inhibition, and number of experiments is given in the section (Tables S2 and S3).
as §2
(§5) Crude membranes (10-25 µg protein/100 µ L) from High Five insect cells expressing cysless WT or mutant Pgp were incubated in the presence and absence of sodium orthovanadate (0.3 mM), in a buffer containing 50 mM MES-Tris pH 6.8, 50 mM KCl, 5 mM NaN3, 1 mM EGTA, 1 mM ouabain, 2 mM DTT, and 10 mM MgCl2. […] The reaction was initiated by addition of 5 mM ATP and continued for 20 min at 37°C. […] The reaction was stopped by addition of 100 µ L of 5% SDS and the amount of inorganic phosphate generated was quantified with a colorimetric reaction, as previously described.

Q725C/V982C mutant Pgp = Q725C/V982C mutant Pgp (Homo sapiens, UniProt P08183, C1074A/C1125A/C1227A/C137A/C431A/C717A/C956A/Q725C/V982C); assay: as above; conditions: Verapamil 50 µM, QZ59-SSS 1 µM, Valinomycin 10 µM, FSBA 1 mM
Method: as §4, §2, §5

F978C mutant Pgp [12] = biological target: T1, F978C mutant Pgp; assay: as above; conditions: Verapamil 50 µM, QZ59-SSS 1 µM, Valinomycin 10 µM
Method: as §4, §2, §5

[13] = biological target: T2, Y307C/Q725C/V982C mutant Pgp; assay: as above; conditions: Verapamil 50 µM, QZ59-SSS 1 µM, Valinomycin 10 µM, FSBA 1 mM
Method: as §4, §2, §5

F343C/V982C mutant Pgp = F343C/V982C mutant Pgp (Homo sapiens, UniProt P08183, C1074A/C1125A/C1227A/C137A/C431A/C717A/C956A/F343C/V982C); assay: as above; conditions: Verapamil 50 µM, QZ59-SSS 1 µM, Valinomycin 10 µM, FSBA 1 mM
Method: as §4, §2, §5

Q725A mutant Pgp = Q725A mutant Pgp (Homo sapiens, UniProt P08183, C1074A/C1125A/C1227A/C137A/C431A/C717A/C956A/Q725A); assay: as above; conditions: Verapamil 50 µM, QZ59-SSS 1 µM, Valinomycin 10 µM
Method: as §4, §2, §5

F728C/V982C mutant Pgp = F728C/V982C mutant Pgp (Homo sapiens, UniProt P08183, C1074A/C1125A/C1227A/C137A/C431A/C717A/C956A/F728C/V982C); assay: as above; conditions: Verapamil 50 µM, QZ59-SSS 1 µM, Valinomycin 10 µM, FSBA 1 mM
Method: as §4, §2, §5

Y307C/V982C mutant Pgp = Y307C/V982C mutant Pgp (Homo sapiens, UniProt P08183, C1074A/C1125A/C1227A/C137A/C431A/C717A/C956A/V982C/Y307C); assay: as above; conditions: Verapamil 50 µM, QZ59-SSS 1 µM, Valinomycin 10 µM, FSBA 1 mM
Method: as §4, §2, §5

V982C mutant Pgp [14] = biological target: T3, V982C mutant Pgp; assay: as above; conditions: Verapamil 50 µM, QZ59-SSS 1 µM, Valinomycin 10 µM, FSBA 1 mM
Method: as §4, §2, §5

Y307C mutant Pgp = Y307C mutant Pgp (Homo sapiens, UniProt P08183, C1074A/C1125A/C1227A/C137A/C431A/C717A/C956A/Y307C); assay: as above; conditions: Verapamil 50 µM, QZ59-SSS 1 µM, Valinomycin 10 µM, FSBA 1 mM
Method: as §4, §2, §5

cysless WT Pgp [15] = biological target: T4, cysless WT Pgp; assay: as above; conditions: Verapamil 50 µM, QZ59-SSS 1 µM, Valinomycin 10 µM, FSBA 1 mM
Method: as §4, §2, §5

Q725C mutant Pgp = Q725C mutant Pgp (Homo sapiens, UniProt P08183, C1074A/C1125A/C1227A/C137A/C431A/C717A/C956A/Q725C); assay: as above; conditions: Verapamil 50 µM, QZ59-SSS 1 µM, Valinomycin 10 µM, FSBA 1 mM
Method: as §4, §2, §5

With `COc1cc2c(cc1OC)CN(CCc1ccc(NC(=O)c3cc(OC)c(OC)cc3NC(=O)c3cnc4ccccc4c3)cc1)CC2` [Tariquidar, tariquidar] the “Modulation of ATP hydrolysis” value (all mutant Pgps) was “found to be inhibited”, the IC50 (F978C mutant Pgp [1]) was 3600 nM and the inhibition at 10 min [2] was 22%. The inhibition at 10 min [3] was 37%, the “Ability to inhibit IAAP photo-labeling” value [4] was “lose almost completely this ability” and the inhibition at 10 min [5] was 23%. For the same molecule, the inhibition at 10 min [6] was 40%, the inhibition at 10 min [7] was 97 ± 4% and the IC50 (V982C mutant Pgp [8]) was 700 nM. The inhibition at 10 min [9] was 73%, the inhibition at 10 min [10] was 64% and the IC50 (cysless WT Pgp [11]) was 140 ± 30 nM.

`CC(C)[C@@H]1NC(=O)[C@H](C)OC(=O)[C@@H](C(C)C)NC(=O)[C@@H](C(C)C)OC(=O)[C@H](C(C)C)NC(=O)[C@H](C)OC(=O)[C@@H](C(C)C)NC(=O)[C@@H](C(C)C)OC(=O)[C@H](C(C)C)NC(=O)[C@H](C)OC(=O)[C@@H](C(C)C)NC(=O)[C@@H](C(C)C)OC1=O` [valinomycin] was tested, and the “Ability to inhibit IAAP photo-labeling” value ([4]; Y307C/Q725C/V982C) was “lose almost completely this ability”, the inhibition at 10 min [7] was 82% and the IC50 (cysless WT Pgp [11]) was 600 nM. The “ATP hydrolysis, Average” value (F728C mutant Pgp) was 23 nmoles Pi/min/mg protein, the “ATP hydrolysis, Fold-stimulation” value (F728C mutant Pgp; relative to basal) was 3.9 and the “ATP hydrolysis, Average” value (Q725C/V982C mutant Pgp) was 5 nmoles Pi/min/mg protein. The “ATP hydrolysis, Average” value (F978C mutant Pgp [12]) was 18 nmoles Pi/min/mg protein, the “ATP hydrolysis, Fold-stimulation” value (F978C mutant Pgp [12]; relative to basal) was 1.5 and the “ATP hydrolysis, Average” value [13] was 14 nmoles Pi/min/mg protein. For the same molecule, the “ATP hydrolysis, Fold-stimulation” value ([13]; relative to basal) was 2.8, the “ATP hydrolysis, Average” value (F343C/V982C mutant Pgp) was 56 nmoles Pi/min/mg protein and the “ATP hydrolysis, Fold-stimulation” value (F343C/V982C mutant Pgp; relative to basal) was 3.1. For the same molecule, the “ATP hydrolysis, Average” value (Q725A mutant Pgp) was 11 nmoles Pi/min/mg protein, the “ATP hydrolysis, Fold-stimulation” value (Q725A mutant Pgp; relative to basal) was 2.1 and the “ATP hydrolysis, Average” value (F728C/V982C mutant Pgp) was 10 nmoles Pi/min/mg protein. The “ATP hydrolysis, Fold-stimulation” value (F728C/V982C mutant Pgp; relative to basal) was 2.5, the “ATP hydrolysis, Average” value (Y307C/V982C mutant Pgp) was 33 nmoles Pi/min/mg protein and the “ATP hydrolysis, Fold-stimulation” value (Y307C/V982C mutant Pgp; relative to basal) was 3.5. The “ATP hydrolysis, Average” value (V982C mutant Pgp [14]) was 13 nmoles Pi/min/mg protein, the “ATP hydrolysis, Average” value (Y307C mutant Pgp) was 17 nmoles Pi/min/mg protein and the “ATP hydrolysis, Fold-stimulation” value (Y307C mutant Pgp; relative to basal) was 2.2. The “ATP hydrolysis, Average” value (cysless WT Pgp [15]) was 40 nmoles Pi/min/mg protein, the “ATP hydrolysis, Fold-stimulation” value (cysless WT Pgp [15]; relative to basal) was 1.9 and the “ATP hydrolysis, Average” value (Q725C mutant Pgp) was 12 nmoles Pi/min/mg protein. The “ATP hydrolysis, Fold-stimulation” value (Q725C mutant Pgp; relative to basal) was 2.5.
